According to US20120121591A1 (priority 2009, published 2012):

Tests used:
Type in all cases: cell-based
hKv1.3 = hKv1.3 (Homo sapiens, UniProt P22001); assay: cell-based; details: Kv1.3 (IWQ) IC50 (nM, Avg)
[1] = test system: IL-2 secretion from T cells in human whole blood; details: read-out: WB (IL-2) IC50 (nM, Avg)
[2] = test system: IFN-g secretion from T cells in human whole blood; details: read-out: WB (IFNg) IC50 (nM, Avg)

Sequence of hKv1.3 (P22001 whole entry): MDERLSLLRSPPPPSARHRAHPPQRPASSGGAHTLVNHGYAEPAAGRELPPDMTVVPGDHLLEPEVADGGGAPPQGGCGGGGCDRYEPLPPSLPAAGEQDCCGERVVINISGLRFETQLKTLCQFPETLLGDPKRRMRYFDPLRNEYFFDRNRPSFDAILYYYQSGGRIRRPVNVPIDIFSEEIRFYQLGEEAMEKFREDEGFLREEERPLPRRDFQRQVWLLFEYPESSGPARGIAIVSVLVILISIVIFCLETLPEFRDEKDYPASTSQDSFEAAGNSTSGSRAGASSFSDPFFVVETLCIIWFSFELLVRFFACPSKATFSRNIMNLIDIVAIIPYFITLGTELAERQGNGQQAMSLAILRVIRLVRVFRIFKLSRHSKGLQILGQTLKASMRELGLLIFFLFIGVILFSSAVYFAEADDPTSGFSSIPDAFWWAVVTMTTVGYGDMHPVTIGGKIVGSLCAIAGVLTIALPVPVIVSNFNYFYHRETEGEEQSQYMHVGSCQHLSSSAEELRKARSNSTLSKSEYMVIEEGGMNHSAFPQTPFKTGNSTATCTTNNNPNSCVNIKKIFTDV

Compound CC[C@H](C)[C@@H]1NC(=O)[C@@H](NC(=O)[C@H](CO)NC(=O)[C@@H](N)CCCNC(=N)N)CSSC[C@@H](C(=O)O)NC(=O)[C@H]([C@@H](C)O)NC(=O)CNC(=O)[C@@H]2CSSC[C@@H]3NC(=O)[C@H](CCC(N)=O)NC(=O)[C@H](Cc4ccccc4)NC(=O)[C@H](C)NC(=O)[C@H]([C@@H](C)O)NC(=O)[C@H](CSSC[C@H](NC(=O)[C@H](Cc4cccc5ccccc45)NC(=O)[C@H](CO)NC(=O)[C@H](CC(C)C)NC(=O)[C@H](CCCNC(=N)N)NC(=O)[C@H](Cc4ccc(O)cc4)NC(=O)[C@H](CCCCN)NC(=O)[C@H](CCSC)NC(=O)[C@H](CO)NC(=O)[C@H](Cc4c[nH]cn4)NC(=O)[C@H](CCCCN)NC3=O)C(=O)N[C@@H](CCCNC(=N)N)C(=O)N[C@@H](CCCCN)C(=O)N[C@@H]([C@@H](C)O)C(=O)N2)NC(=O)[C@H](CCCNC(=N)N)NC(=O)[C@H](CO)NC(=O)[C@H](CCCCN)NC(=O)[C@@H]2CCCN2C(=O)[C@H]([C@@H](C)CC)NC(=O)[C@H]([C@@H](C)O)NC(=O)[C@H](CC(=O)O)NC1=O [[1-Nal27]ShK] has an IC50 (hKv1.3) of 0.144 nM, an IC50 [1] of 1.07 nM and an IC50 [2] of 2.84 nM.
With CC[C@H](C)[C@@H]1NC(=O)[C@@H](NC(=O)[C@H](CO)NC(=O)[C@@H](N)CCCNC(=N)N)CSSC[C@@H](C(N)=O)NC(=O)[C@H]([C@@H](C)O)NC(=O)CNC(=O)[C@@H]2CSSC[C@@H]3NC(=O)[C@H](CCCCN)NC(=O)[C@H](Cc4ccccc4)NC(=O)[C@H](C)NC(=O)[C@H]([C@@H](C)O)NC(=O)[C@H](CSSC[C@H](NC(=O)[C@H](Cc4ccccc4)NC(=O)[C@H](CO)NC(=O)[C@H](CC(C)C)NC(=O)[C@H](CCCNC(=N)N)NC(=O)[C@H](Cc4ccc(O)cc4)NC(=O)[C@H](CCCCN)NC(=O)[C@H](Cc4c[nH]cn4)NC(=O)[C@H](CO)NC(=O)[C@H](Cc4c[nH]cn4)NC(=O)[C@H](CCCCN)NC3=O)C(=O)N[C@@H](CCCNC(=N)N)C(=O)N[C@@H](CCCCN)C(=O)N[C@@H]([C@@H](C)O)C(=O)N2)NC(=O)[C@H](CCCNC(=N)N)NC(=O)[C@H](CO)NC(=O)[C@H](CCCCN)NC(=O)[C@@H]2CCCN2C(=O)[C@H]([C@@H](C)CC)NC(=O)[C@H]([C@@H](C)O)NC(=O)[C@H](CC(=O)O)NC1=O [[Lys16, His21]ShK-amide] the IC50 (hKv1.3) was 0.219 nM, the IC50 [1] was 5.5 nM and the IC50 [2] was 9.25 nM.
Compound CC[C@H](C)[C@@H]1NC(=O)[C@@H](NC(=O)[C@H](CO)NC(=O)[C@@H](N)CCCNC(=N)N)CSSC[C@@H](C(N)=O)NC(=O)[C@H]([C@@H](C)O)NC(=O)CNC(=O)[C@@H]2CSSC[C@@H]3NC(=O)[C@H](CCCCN)NC(=O)[C@H](Cc4ccccc4)NC(=O)[C@H](C)NC(=O)[C@H]([C@@H](C)O)NC(=O)[C@H](CSSC[C@H](NC(=O)[C@H](Cc4ccccc4)NC(=O)[C@H](CO)NC(=O)[C@H](CC(C)C)NC(=O)[C@H](CCCNC(=N)N)NC(=O)[C@H](Cc4ccc(O)cc4)NC(=O)[C@H](CCCCN)NC(=O)[C@H]([C@@H](C)O)NC(=O)[C@H](CO)NC(=O)[C@H](Cc4c[nH]cn4)NC(=O)[C@H](CCCCN)NC3=O)C(=O)N[C@@H](CCCNC(=N)N)C(=O)N[C@@H](CCCCN)C(=O)N[C@@H]([C@@H](C)O)C(=O)N2)NC(=O)[C@H](CCCNC(=N)N)NC(=O)[C@H](CO)NC(=O)[C@H](CCCCN)NC(=O)[C@@H]2CCCN2C(=O)[C@H]([C@@H](C)CC)NC(=O)[C@H]([C@@H](C)O)NC(=O)[C@H](CC(=O)O)NC1=O [[Lys16, Thr21]ShK-amide] has an IC50 (hKv1.3) of 0.058 nM, an IC50 [1] of 1.55 nM and an IC50 [2] of 2.98 nM.
With CC[C@H](C)[C@@H]1NC(=O)[C@H]([C@@H](C)O)NC(=O)[C@H](CC(=O)O)NC(=O)[C@H](CCC(=O)O)NC(=O)[C@@H](NC(=O)[C@H](CO)NC(=O)[C@@H](N)CCCNC(=N)N)CSSC[C@@H](C(=O)O)NC(=O)[C@H]([C@@H](C)O)NC(=O)CNC(=O)[C@@H]2CSSC[C@@H]3NC(=O)[C@H](CCCCN)NC(=O)[C@H](C)NC(=O)[C@H](C)NC(=O)[C@H]([C@@H](C)O)NC(=O)[C@H](CSSC[C@H](NC(=O)[C@H](Cc4ccccc4)NC(=O)[C@H](CO)NC(=O)[C@H](CC(C)C)NC(=O)[C@H](CCCNC(=N)N)NC(=O)[C@H](Cc4ccc(O)cc4)NC(=O)[C@H](CCCCN)NC(=O)[C@H](CCSC)NC(=O)[C@H](CO)NC(=O)[C@H](Cc4c[nH]cn4)NC(=O)[C@H](CCCCN)NC3=O)C(=O)N[C@@H](CCCNC(=N)N)C(=O)N[C@@H](CCCNC(=N)N)C(=O)N[C@@H]([C@@H](C)O)C(=O)N2)NC(=O)[C@H](CCCNC(=N)N)NC(=O)[C@H](CCCNC(=N)N)NC(=O)[C@H](CCCCN)NC(=O)[C@@H]2CCCN2C1=O [[Glu4,Arg10,30,A1a15,Lys16]ShK] the IC50 (hKv1.3) was 0.14 nM, the IC50 [1] was 0.209 nM and the IC50 [2] was 0.305 nM.
Work on CC[C@H](C)[C@@H]1NC(=O)[C@@H](NC(=O)[C@H](CO)NC(=O)[C@@H](N)CCCNC(=N)N)CSSC[C@@H](C(=O)O)NC(=O)[C@H]([C@@H](C)O)NC(=O)CNC(=O)[C@@H]2CSSC[C@@H]3NC(=O)[C@H](CCC(N)=O)NC(=O)[C@H](Cc4ccccc4)NC(=O)[C@H](C)NC(=O)[C@H]([C@@H](C)O)NC(=O)[C@H](CSSC[C@H](NC(=O)[C@H](Cc4ccccc4)NC(=O)[C@H](CO)NC(=O)[C@H](CC(C)C)NC(=O)[C@H](CCCNC(=N)N)NC(=O)[C@H](Cc4ccc(O)cc4)NC(=O)[C@H](CCCCN)NC(=O)[C@H](CCSC)NC(=O)[C@H](CO)NC(=O)[C@H](Cc4c[nH]cn4)NC(=O)[C@H](CCCCN)NC3=O)C(=O)N[C@@H](CCCNC(=N)N)C(=O)N[C@@H](CCCCN)C(=O)N[C@@H]([C@@H](C)O)C(=O)N2)NC(=O)[C@H](CCCNC(=N)N)NC(=O)[C@H](CO)NC(=O)[C@H](CCCNC(=N)N)NC(=O)[C@@H]2CCCN2C(=O)[C@H]([C@@H](C)CC)NC(=O)[C@H]([C@@H](C)O)NC(=O)[C@H](CC(=O)O)NC1=O [[Arg9]ShK] yielded an IC50 (hKv1.3) of 0.096 nM, an IC50 [1] of 0.108 nM and an IC50 [2] of 0.116 nM.
CC[C@H](C)[C@@H]1NC(=O)[C@@H](NC(=O)[C@H](CO)NC(=O)[C@@H](N)CCCNC(=N)N)CSSC[C@@H](C(N)=O)NC(=O)[C@H]([C@@H](C)O)NC(=O)CNC(=O)[C@@H]2CSSC[C@@H]3NC(=O)[C@H](CCCCN)NC(=O)[C@H](Cc4ccccc4)NC(=O)[C@H](C)NC(=O)[C@H]([C@@H](C)O)NC(=O)[C@H](CSSC[C@H](NC(=O)[C@H](Cc4ccc(O)cc4)NC(=O)[C@H](CO)NC(=O)[C@H](CC(C)C)NC(=O)[C@H](CCCNC(=N)N)NC(=O)[C@H](Cc4ccc(O)cc4)NC(=O)[C@H](CCCCN)NC(=O)[C@H](CCSC)NC(=O)[C@H](CO)NC(=O)[C@H](Cc4c[nH]cn4)NC(=O)[C@H](CCCCN)NC3=O)C(=O)N[C@@H](CCCCN)C(=O)N[C@@H](CCCCN)C(=O)N[C@@H]([C@@H](C)O)C(=O)N2)NC(=O)[C@H](CCCNC(=N)N)NC(=O)[C@H](CO)NC(=O)[C@H](CCCCN)NC(=O)[C@@H]2CCCN2C(=O)[C@H]([C@@H](C)CC)NC(=O)[C@H]([C@@H](C)O)NC(=O)[C@H](CC(=O)O)NC1=O [[Lys16,29;Tyr27]ShK-amide] gave an IC50 (hKv1.3) of 0.042 nM, an IC50 [1] of 0.738 nM and an IC50 [2] of 1.17 nM.
